Values quoted from earlier work, collected in patent US11033592B2, “Composition for the prevention and/or treatment of cardiovascular diseases” (priority 2016, dated 2021).

System: first occurrence of cardiovascular events
Settings: CRESTOR 20 mg versus placebo, P<0.00001

For `CC(C)c1nc(N(C)S(C)(=O)=O)nc(-c2ccc(F)cc2)c1/C=C/[C@@H](O)C[C@@H](O)CC(=O)O` [CRESTOR, rosuvastatin], the “relative reduction in risk of a major cardiovascular event” value is listed as 44%.
